Test results taken from patent US8598132B2, “Glycosylated indolocarbazoles, method for obtaining same and uses thereof” (Universidad de Oviedo, priority 2008, dated 2013).

How the values were obtained:
Type in all cases: biochemical
GSK3b = target: T1, GSK3b (Homo sapiens, UniProt P49841); assay: LabChip (Caliper) kinase assay, GSK3b; details: read-out: remaining kinase activity (in %) / percentage of inhibition; for inhibition at 0.01 µM: compound at 10 nM; for inhibition at 0.1 µM: compound at 100 nM
T1 construct: purchased Carna Biosciences
Description: (§1) The analysis of kinase activity described here was performed using LabChip (Caliper Life Sciences), specifically the Caliper LC3000 and the EZ Reader II instruments.
(§2) The kinase assay used measures the conversion of a fluorescent peptide (substrate) to a phosphorylated product. The reaction mixture, in a microplate well, is introduced by a capillary in a chip where the non-phosphorylated substrate and the phosphorylated product are separated by […]. The intensity of the fluorescent signal over time is related to the reaction progress. The phosphorylated product migrates quicker than the non-phosphorylated substrate and the signals of the two forms of the peptide appear as differentiated peaks. The Caliper determines the peak height and calculates the ratio of product to the peak sum (P/(P+S)). This value is used to compare wells with compounds and wells with controls and thus determine the % of inhibition for the given product.
(§3) The followings kinases were used for the enzymatic inhibition studies, between brackets the value of the Michaelis-Menten constant, Km, of the ATP (Adenosine triphosphate) for each kinase, in μM: obtained from Carna Biosciences: MAPKAPK2 (4.6), AurA (3.6), AurB (5), PKCζ (3.8), RSK1 (23.3), PRAK (5), Erk1 (33.4), PKD2 (32.1), CK1d (16.3), CHK1 (33), ABL (61.7), FYN (36), LYNa (17), CHK2 (57.8), MET (79.5), LCK (28.5), SRC (38), GSK3β (7.3), Erk2 (62.1), PKACα (1.7), AKT2 (186.1), INSR (871.8), p38a (396.5), AKT1(48), MSK1 (21.2), PKCβ2 (84.8), ROCK2 (3.3), PIM2 (4.9), AMPK (38.6), KDR (164.8), IRAK4 (196.5), SGK1 (121.8), SYK (33.5); obtained from Invitrogen: CDK2 (57.6), BTK (123), HGK (80); obtained from Upstate: MST2 (36.6), PKGα (16), PAK2 (1.9), IGF1R (320), FGFR1 (171), MARK1 (33), CAMK2δ (22.4), c-TAK1 (66), DYRK1a (18.1), CaMK4 (3.9), FLT3 (350), c-Raf (6.2), P70S6K (95).
(§4) The compounds were dissolved in 100% DMSO and were diluted at 25 times the final concentration desired for the assay. In the case of the determination of Cl50, serial dilutions were made to reach eight concentrations and give rise to the inhibition curve. 1 μL of each concentration is transferred, in duplicate to a 384-well microplate. 12 μL of enzymatic buffer is added to each well containing purified kinase (several suppliers as indicated above), 100 mM HEPES, pH 7.5, 1 mM DTT (Calbiochem), 0.002% Brij-35 (Sigma) and also in presence of 10 mM MgCl2 as cofactor, except for INSR and IRAK4 wherein 10 mM MnCl2 is used instead of MgCl2. For the kinases CAMK26 and CAMK4, 1 mM CaCl2 and 6.7 μg/mL of calmodulin are also added. For KDR kinase, 0.05% of the CHAPSO detergent is added. For the c-Raf kinase, 10 mM MnCl2 is added. For PKCβ2 0.02 μg/mL of PS/PMA is added. For PKGα se 10 μM of cGMP (cyclic guanosine monophosphate) is added. The compound and the enzyme are left for 15 minutes preincubation and, then, the following are added to each well: 12 μL of peptide buffer/ATP containing 100 mM HEPES, pH 7.5, 1.5 μM peptide marker with fluorescein (specific for the corresponding kinase), ATP (at concentration KM), and 0.002% Brij-35 to start the reaction. Generally, the reactions are incubated for 1-1.5 h at ambient temperature to obtain an adequate conversion (15-40%) of the peptide to the phosphorylated product. The reactions were ended by the addition of 45 μL of buffer containing 0 mM EDTA. The microplates were read by the LabChip 3000 using a 12-channel LabChip. The P/(P+S) values were obtained as described above and the CI50 curves were generated using XIfit. […]

Erk2 = target: T2, Erk2 (Homo sapiens, UniProt P28482); assay: LabChip (Caliper) kinase assay, Erk2; details: read-out: remaining kinase activity (in %) / percentage of inhibition; for inhibition at 0.01 µM: compound at 10 nM; for inhibition at 0.1 µM: compound at 100 nM
T2 construct: purchased Carna Biosciences
Description: as §1, §2, §3, §4

FGFR3 = FGFR3 (Homo sapiens, UniProt P22607); assay: LabChip (Caliper) kinase assay, FGFR3; details: read-out: remaining kinase activity (in %) / percentage of inhibition; for inhibition at 0.01 µM: compound at 10 nM; for inhibition at 0.1 µM: compound at 100 nM
Description: as §1, §2, §3
(§5) The compounds were dissolved in 100% DMSO and were diluted at 25 times the final concentration desired for the assay. In the case of the determination of Cl50, serial dilutions were made to reach eight concentrations and give rise to the inhibition curve. 1 μL of each concentration is transferred, in duplicate to a 384-well microplate. 12 μL of enzymatic buffer is added to each well containing purified kinase (several suppliers as indicated above), 100 mM HEPES, pH 7.5, 1 mM DTT (Calbiochem), 0.002% Brij-35 (Sigma) and also in presence of 10 mM MgCl2 as cofactor, except for INSR and IRAK4 wherein 10 mM MnCl2 is used instead of MgCl2. For the kinases CAMK26 and CAMK4, 1 mM CaCl2 and 6.7 μg/mL of calmodulin are also added. For KDR kinase, 0.05% of the CHAPSO detergent is added. For the c-Raf kinase, 10 mM MnCl2 is added. For PKCβ2 0.02 μg/mL of PS/PMA is added. For PKGα se 10 μM of cGMP (cyclic guanosine monophosphate) is added. The compound and the enzyme are left for 15 minutes preincubation and, then, the following are added to each well: 12 μL of peptide buffer/ATP containing 100 mM HEPES, pH 7.5, 1.5 μM peptide marker with fluorescein (specific for the corresponding kinase), ATP (at concentration KM), and 0.002% Brij-35 to start the reaction. Generally, the reactions are incubated for 1-1.5 h at ambient temperature to obtain an adequate conversion (15-40%) of the peptide to the phosphorylated product. The reactions were ended by the addition of 45 μL of buffer containing 0 mM EDTA. The microplates were read by the LabChip 3000 using a 12-channel LabChip. The P/(P+S) values were obtained as described above and the CI50 curves were generated using XIfit.
(§6) For example, the activity of the Dyrk1a kinase is inhibited in 87% by the compound of formula (III) and completely by the compound of formula (XII) when used at a concentration of 10 nM.

CamK2a = assay: LabChip (Caliper) kinase assay, CamK2a
Description: as §1, §2, §3, §5, §6

T2 sequence (P28482 whole entry): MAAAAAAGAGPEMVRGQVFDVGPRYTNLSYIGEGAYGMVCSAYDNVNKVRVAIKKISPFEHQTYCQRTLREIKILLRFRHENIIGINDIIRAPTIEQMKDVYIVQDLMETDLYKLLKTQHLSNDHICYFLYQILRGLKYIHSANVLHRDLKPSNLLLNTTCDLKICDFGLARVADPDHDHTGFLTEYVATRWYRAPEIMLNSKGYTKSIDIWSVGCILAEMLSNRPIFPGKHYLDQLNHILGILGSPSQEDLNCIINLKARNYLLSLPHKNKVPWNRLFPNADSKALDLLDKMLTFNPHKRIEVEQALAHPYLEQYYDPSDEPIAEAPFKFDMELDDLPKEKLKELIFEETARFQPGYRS
T1 sequence (P49841 whole entry): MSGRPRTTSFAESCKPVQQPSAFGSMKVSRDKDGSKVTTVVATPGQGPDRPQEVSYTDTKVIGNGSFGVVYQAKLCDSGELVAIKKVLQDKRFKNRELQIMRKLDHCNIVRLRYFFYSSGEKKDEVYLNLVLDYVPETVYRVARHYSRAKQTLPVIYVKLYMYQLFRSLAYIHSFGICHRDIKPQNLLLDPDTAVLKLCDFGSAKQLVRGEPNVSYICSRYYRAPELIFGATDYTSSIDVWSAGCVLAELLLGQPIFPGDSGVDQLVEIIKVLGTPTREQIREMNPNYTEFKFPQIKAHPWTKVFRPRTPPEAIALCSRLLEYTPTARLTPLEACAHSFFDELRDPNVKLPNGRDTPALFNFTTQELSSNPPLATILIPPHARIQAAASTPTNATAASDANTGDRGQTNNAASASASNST
Sequence of FGFR3 (P22607 23-806, species assumed): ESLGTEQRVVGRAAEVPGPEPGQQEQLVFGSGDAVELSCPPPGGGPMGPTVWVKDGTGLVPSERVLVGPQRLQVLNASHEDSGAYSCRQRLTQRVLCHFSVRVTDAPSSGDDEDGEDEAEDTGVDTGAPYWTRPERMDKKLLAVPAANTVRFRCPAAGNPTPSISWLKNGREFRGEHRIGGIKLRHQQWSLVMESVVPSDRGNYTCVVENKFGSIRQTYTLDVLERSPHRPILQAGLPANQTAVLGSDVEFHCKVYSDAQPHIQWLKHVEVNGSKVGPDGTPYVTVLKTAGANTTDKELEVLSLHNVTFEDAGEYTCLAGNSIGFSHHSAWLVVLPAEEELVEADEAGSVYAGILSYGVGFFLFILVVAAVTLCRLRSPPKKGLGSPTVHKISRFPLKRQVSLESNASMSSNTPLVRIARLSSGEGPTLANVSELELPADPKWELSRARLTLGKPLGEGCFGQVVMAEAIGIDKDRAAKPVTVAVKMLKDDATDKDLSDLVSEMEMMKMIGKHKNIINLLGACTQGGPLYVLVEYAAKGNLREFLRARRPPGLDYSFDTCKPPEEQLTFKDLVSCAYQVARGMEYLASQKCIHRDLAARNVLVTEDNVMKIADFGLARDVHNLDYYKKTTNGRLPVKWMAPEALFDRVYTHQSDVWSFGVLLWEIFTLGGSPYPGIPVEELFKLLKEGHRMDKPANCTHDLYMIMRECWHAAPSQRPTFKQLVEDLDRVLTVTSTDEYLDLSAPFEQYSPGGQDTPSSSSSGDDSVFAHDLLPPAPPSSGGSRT

| SMILES | inhibition at 0.01 µM (GSK3b) | inhibition at 0.1 µM (GSK3b) | inhibition at 0.01 µM (Erk2) | inhibition at 0.1 µM (Erk2) | inhibition at 0.01 µM (FGFR3) | inhibition at 0.1 µM (FGFR3) | remaining kinase activity (in %) / percentage of inhibition (CamK2a; compound at 10 nM) | remaining kinase activity (in %) / percentage of inhibition (CamK2a; compound at 100 nM) |
| --- | --- | --- | --- | --- | --- | --- | --- | --- |
| C[C@@H]1O[C@@H](n2c3ccccc3c3c4c(c5c6ccccc6[nH]c5c32)C(=O)NC4=O)[C@H](O)[C@H](O)[C@H]1O [formula (III), N^13-1′-β-L-rhamnosylarcyriaflavin] | 21% | 72% | -6% | -4% | -10% | -4% | −5% | 3% |
| C[C@@H]1O[C@@H](n2c3ccccc3c3c4c(c5c6ccccc6[nH]c5c32)C(=O)NC4=O)C[C@H](O)[C@H]1O [formula (IV), N^13-1′-β-L-olivosylarcyriaflavin] | 21% | 69% | -2% | -3% | -6% | 3% | 36% | 29% |
| C[C@@H]1O[C@@H](n2c3ccccc3c3c4c(c5c6ccccc6[nH]c5c32)C(=O)NC4=O)C[C@@H](O)[C@H]1O [formula (V), N^13-1′-β-L-digitoxosylarcyriaflavin] | 42% | 81% | -4% | 0% | -6% | -1% | 15% | 58% |
| C[C@H]1O[C@@H](n2c3ccccc3c3c4c(c5c6ccccc6[nH]c5c32)C(=O)NC4=O)C[C@@H](O)[C@@H]1O [formula (VI), N^13-1′-β-D-olivosylarcyriaflavin] | 18% | 69% | -1% | 30% | -8% | -11% | 4% | 46% |
| C[C@@H]1O[C@@H](n2c3ccccc3c3c4c(c5c6ccccc6[nH]c5c32)CNC4=O)[C@H](O)[C@H](O)[C@H]1O [formula (XII), N^13-1′-β-L-rhamnosyl-k252c] | 3% | 8% | -3% | -1% | -2% | -1% | −6% | 2% |
| C[C@@H]1O[C@@H](n2c3ccccc3c3c4c(c5c6ccccc6[nH]c5c32)CNC4=O)C[C@H](O)[C@H]1O [formula (XIII), N^13-1′-β-L-olivosyl-k252c] | 2% | 9% | -4% | 3% | -4% | -6% | −6% | 27% |
| C[C@@H]1O[C@@H](n2c3ccccc3c3c4c(c5c6ccccc6[nH]c5c32)CNC4=O)C[C@@H](O)[C@H]1O [formula (XIV), N^13-1′-β-L-digitoxosyl-k252c] | 1% | 7% | -4% | 0% | -6% | -11% | −7% | 26% |
| C[C@H]1O[C@@H](n2c3ccccc3c3c4c(c5c6ccccc6[nH]c5c32)CNC4=O)C[C@@H](O)[C@@H]1O [formula (XV), N^13-1′-β-D-olivosyl-k252c] | 0% | 0% | -4% | -2% | -20% | -13% | −6% | 29% |
